This passage reports EC50 results from BindingDB's records for patent US11453697 (Merck Sharp & Dohme, 2022).

The assay deals with Stimulator of interferon genes protein [1-379,R71H,G230A,H232R,R293Q] (Homo sapiens, UniProt Q86WV6, G230A/H232R/R293Q/R71H). Kind of assay: 3H-cGAMP Filtration Binding Assay (HAQ STING). The procedure:
Compound and membrane then preincubated for 60 min at RT to allow compound binding to equilibrate. Following equilibration, 8 nM of [3H] c-GAMP ligand was prepared by diluting into assay buffer, and 50 uL of this working stock was then manually added to each well of the assay plate. […] The filter plates were then dried at 55° C. for 30 min using a pressurized VWR oven before 30 uL of Ultima GoldF scintillate was added to each well. Tritium levels for each reaction well were then measured using a PerkinElmer TopCount plate reader.

Chain of Stimulator of interferon genes protein [1-379,R71H,G230A,H232R,R293Q] (Q86WV6 whole entry R71H/G230A/H232R/R293Q, looked up): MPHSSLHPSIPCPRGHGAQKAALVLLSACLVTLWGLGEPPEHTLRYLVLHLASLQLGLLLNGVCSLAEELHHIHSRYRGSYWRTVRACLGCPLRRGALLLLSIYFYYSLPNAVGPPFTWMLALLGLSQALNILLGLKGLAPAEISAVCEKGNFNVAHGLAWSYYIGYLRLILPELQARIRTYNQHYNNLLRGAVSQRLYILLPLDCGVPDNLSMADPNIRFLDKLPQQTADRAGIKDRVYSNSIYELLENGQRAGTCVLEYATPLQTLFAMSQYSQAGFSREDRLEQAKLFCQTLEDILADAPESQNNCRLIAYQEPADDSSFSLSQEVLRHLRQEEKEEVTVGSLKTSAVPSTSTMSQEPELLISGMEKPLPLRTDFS

What is called EC50 is the concentration at which the effect is half-maximal. The low end stands for an effect from little substance, the high end for a need for much substance. Take `Nc1nc2c(ncn2[C@@H]2O[C@@H]3COP(=O)(S)OC4[C@@H](COP(=O)(S)O[C@H]2C3)O[C@@H](n2nnc3c(N)ncnc32)[C@H]4F)c(=O)[nH]1` (some centres not stated) [US11453697, Example 133]: the EC50 was 0.0614 µM.

`Nc1nc2c(ncn2[C@@H]2O[C@@H]3COP(=O)(S)O[C@H]4[C@H](F)[C@H](n5cnc6c(N)ncnc65)O[C@@H]4COP(=O)(O)O[C@@H]2[C@@H]3F)c(=O)[nH]1` (some centres not stated) [US11453697, Example 143] showed an EC50 of 0.00105 µM.
